Measurements as given in patent US11965100B2, “Aggregation-induced emission luminogens useful for cancer cell discrimination and monitoring” (The Hong Kong University of Science and Technology, priority 2020, dated 2024).

What was measured:
HeLa cells = assay: Mitochondrion-nucleolus migration on CCCP treatment, HeLa cells; assay type: cell-based; details: pre-stained 2 μM 30 min, 20 μM CCCP 5 min
Protocol: FIG. 16 Live HeLa cells were pre-stained with 2 μM IVP-02 for 30 min, and treated with 20 μM CCCP for 5 min. Then CCCP was removed away and fresh culture medium was added for another 5 min. λex=488 nm, λem=500-650 nm. Scale bar=20 μm.
FIG. 19 Live HeLa cells were pre-stained with 2 μM IVP-04, 22, 42, 06, 62 for 30 min, and treated with 20 μM CCCP for 5 min. Then CCCP was removed away and fresh culture medium was added for another 5 min, respectively. λex=488 nm, λem=500-650 nm. Scale bar=20 μm.
Monitoring cell viability is a highly valuable task for the fundamental researches in biology, pathology, and medicine. Then we investigated whether IVP-02 could monitor cell viability. Δψm is a very important indicator to characterize cell viability. With the loss of cell viability, Δψm would decrease, while with the recovery of cell viability, Δψm would also recover to the normal level. […] Carbonyl cyanide m-chlorophenyl hydrazone (CCCP) is a type of protonophore and can cause rapid acidification of mitochondria by collapsing Δψm. Cancer cells A549 were pre-stained with IVP-02 for 30 min. In FIG. 15A, in the beginning, IVP-02 stained mitochondria clearly. […] Hydrogen peroxide (H2O2) can inhibit the oxidation respiratory chain that would cause the loss of cell viability. Then live A549 and HeLa cells were pre-stained with IVP-02, and treated with 10 mM H2O2.
In addition to IVP-02, we further investigated whether other IVP molecules could monitor the viability of cancer cells through mitochondrion-nucleolus migration was investigated. A549 cells were pre-stained with IVP-04, 22, 42, 06, and 62, respectively, and then CCCP was added.

[1] = test system: cancer cells (A549 and HeLa) co-cultured with normal cells (COS7 and HLF); assay: CLSM imaging of cancer cells co-cultured with normal cells; assay type: cell-based; details: 30 min
Protocol: FIG. 5 CLSM images of live cancer cells (A549 and HeLa) co-cultured with normal cells (COS7 and HLF) (A), and the images of A549 and HLF cells seeded on different cover glasses (Scale bar=20 μm) (B) stained with 2 μM IVP-02 for 30 min (Scale bar=50 μm), respectively. λex=488 nm, λem=500-650 nm.
FIG. 10 CLSM images of live cancer cells (A549) co-cultured with normal cells (COS7) (A), and the images of A549 and HLF cells seeded on different cover glasses Scale bar=20 μm (B) stained with 2 μM IVP-02, 04, 06, 22, 42, and 62 for 30 min Scale bar=50 μm, respectively. (The first column in B is the same as FIG. 3B) λex=488 nm, λem=500-650 nm.
FIG. 11 CLSM images of live cancer cells (HeLa) co-cultured with normal cells (COS7), stained with 2 μM IVP-02, 04, 06, 22, 42, and 62 for 30 min, respectively. λex=488 nm, λem=500-650 nm. Scale bar=20 μm.
FIG. 12 CLSM images of live cancer cells (A549) co-cultured with normal cells (HLF), stained with 2 μM IVP-02, 04, 06, 22, 42, and 62 for 30 min, respectively. λex=488 nm, λem=500-650 nm. Scale bar=20 μm.
The bioimaging properties of IVP-02 in live cells were investigated by confocal laser scanning microscopy (CLSM). Cancer cells (A549 and HeLa) and normal cells (COS7 and HLF) were stained with IVP-02, respectively. […] So IVP-02 holds the high potential to differentiate cancer and normal cells. To verify this speculation, cancer and normal cells were co-cultured and stained with IVP-02. […] To precisely confirm the selectivity of IVP-02 to cancer cells, cancer cells A549 and normal cells HLF (A549 and HLF are both human lung cells) were seeded on different cover glasses, respectively. Then the two cover glasses were put in the same dish and stained with IVP-02 at the same time.
Cancer cells A549 co-cultured with normal cells COS7 were stained with these molecules, respectively. […] Then HeLa cells co-cultured with COS7 cells (FIG. 11), and A549 cells co-cultured with HLF cells (FIG. 12) were also stained with these molecules, the results were similar with that in A549 cells co-cultured with COS7 cells. In addition to co-culturing, A549 cells and HLF cells were also seeded on different cover glasses and stained with these molecules. […] Based on the imaging results above, it can be concluded that the selectivity of these IVP molecules to cancer cells is also based on the length of alkyl chain at pyridinium salt side. Lengthening the alkyl chain at the pyridinium salt side will eliminate the selectivity to cancer cells.

## CC[n+]1ccc(/C=C/c2c[nH]c3ccccc23)cc1 [IVP-02]
HeLa cells
  nucleolus staining after addition of CCCP: could stain nucleolus
[1]; A549 and HeLa co-cultured with COS7 and HLF, 2 μM
  staining of co-cultured cancer and normal cells: only cancer cells (A549 and HeLa) were highly illuminated
[1]; A549 co-cultured with COS7, 2 μM
  staining of co-cultured cancer and normal cells: only stain A549 cells
